{"source": "ChEMBL document CHEMBL4819087", "about": "“Identification and optimization of 3-bromo-N'-(4-hydroxybenzylidene)-4-methylbenzohydrazide derivatives as mTOR inhibitors that induce autophagic cell death and apoptosis in triple-negative breast cancer” (Eur J Med Chem, 2021)", "key": {"[1]": {"molecular_target": "T1, Serine/threonine-protein kinase mTOR (Homo sapiens, UniProt P42345)", "assay": "Inhibition of mTOR in human MDA-MB-231 cells assessed as reduction in phosphorylation of mTOR at Ser2448 residue at 0.5 to 2 uM after 24 hrs by Western blot analysis", "type": "cell-based", "conditions": "dose 0.5-2 µM"}, "[2]": {"molecular_target": "T1, Serine/threonine-protein kinase mTOR", "assay": "Inhibition of mTOR in human MDA-MB-468 cells assessed as reduction in phosphorylation of mTOR at Ser2448 residue at 0.5 to 2 uM after 24 hrs by Western blot analysis", "type": "cell-based", "conditions": "dose 0.5-2 µM"}, "[3]": {"molecular_target": "T1, Serine/threonine-protein kinase mTOR", "assay": "Inhibition of mTOR in human MDA-MB-231 cells assessed as reduction in AKT protein level at 0.5 to 2 uM after 24 hrs by Western blot analysis", "type": "cell-based", "conditions": "dose 0.5-2 µM"}, "[4]": {"molecular_target": "T1, Serine/threonine-protein kinase mTOR", "assay": "Inhibition of mTOR in human MDA-MB-231 cells assessed as reduction in P70S6 protein level at 0.5 to 2 uM after 24 hrs by Western blot analysis", "type": "cell-based", "conditions": "dose 0.5-2 µM"}, "[5]": {"molecular_target": "T1, Serine/threonine-protein kinase mTOR", "assay": "Inhibition of mTOR in human MDA-MB-468 cells assessed as reduction in AKT protein level at 0.5 to 2 uM after 24 hrs by Western blot analysis", "type": "cell-based", "conditions": "dose 0.5-2 µM"}, "[6]": {"molecular_target": "T1, Serine/threonine-protein kinase mTOR", "assay": "Inhibition of mTOR in human MDA-MB-231 cells assessed as reduction in p-4EBP1(Thr37/46) protein level at 0.5 to 2 uM after 24 hrs by Western blot analysis", "type": "cell-based", "conditions": "dose 0.5-2 µM"}, "[7]": {"molecular_target": "T1, Serine/threonine-protein kinase mTOR", "assay": "Inhibition of mTOR in human MDA-MB-231 cells assessed as reduction in p-AKT(Ser473) protein level at 0.5 to 2 uM after 24 hrs by Western blot analysis", "type": "cell-based", "conditions": "dose 0.5-2 µM"}, "[8]": {"molecular_target": "T1, Serine/threonine-protein kinase mTOR", "assay": "Inhibition of mTOR in human MDA-MB-468 cells assessed as reduction in p-4EBP1(Thr37/46) protein level at 0.5 to 2 uM after 24 hrs by Western blot analysis", "type": "cell-based", "conditions": "dose 0.5-2 µM"}, "MDA-MB-231 [9]": {"tested_on": "MDA-MB-231", "assay": "Antiproliferative activity against human MDA-MB-231 cells measured after 24 hrs by Hoechst 33258 dye based fluorescence microscopic analysis", "type": "functional, cell-based", "conditions": "dose 2.5-10 µM"}, "MDA-MB-231 [10]": {"tested_on": "MDA-MB-231", "assay": "Induction of apoptosis in human MDA-MB-231 cells assessed as viable cells at 2.5 uM after 24 hrs by AnnexinV-FITC/PI staining based flow cytometry analysis (reference value: 96.45%)", "type": "functional", "conditions": "read-out: Activity"}, "MDA-MB-231 [11]": {"tested_on": "MDA-MB-231", "assay": "Induction of apoptosis in human MDA-MB-231 cells assessed as necrotic cells at 2.5 uM after 24 hrs by AnnexinV-FITC/PI staining based flow cytometry analysis (reference value: 0.083%)", "type": "functional"}, "MDA-MB-231 [12]": {"tested_on": "MDA-MB-231", "assay": "Induction of apoptosis in human MDA-MB-231 cells assessed as viable cells at 5 uM after 24 hrs by AnnexinV-FITC/PI staining based flow cytometry analysis (reference value: 96.45%)", "type": "functional", "conditions": "read-out: Activity"}, "MDA-MB-231 [13]": {"tested_on": "MDA-MB-231", "assay": "Induction of apoptosis in human MDA-MB-231 cells assessed as early apoptotic cells at 5 uM after 24 hrs by AnnexinV-FITC/PI staining based flow cytometry analysis (reference value: 2.63%)", "type": "functional"}, "MDA-MB-231 [14]": {"tested_on": "MDA-MB-231", "assay": "Induction of apoptosis in human MDA-MB-231 cells assessed as late apoptotic cells at 5 uM after 24 hrs by AnnexinV-FITC/PI staining based flow cytometry analysis (reference value: 0.84%)", "type": "functional"}, "MDA-MB-231 [15]": {"tested_on": "MDA-MB-231", "assay": "Induction of apoptosis in human MDA-MB-231 cells assessed as necrotic cells at 5 uM after 24 hrs by AnnexinV-FITC/PI staining based flow cytometry analysis (reference value: 0.083%)", "type": "functional"}, "MDA-MB-231 [16]": {"tested_on": "MDA-MB-231", "assay": "Induction of apoptosis in human MDA-MB-231 cells assessed as late apoptotic cells at 10 uM after 24 hrs by AnnexinV-FITC/PI staining based flow cytometry analysis (reference value: 0.84 to 1.59%)", "type": "functional"}, "MDA-MB-468 [17]": {"tested_on": "MDA-MB-468", "assay": "Induction of apoptosis in human MDA-MB-468 cells assessed as viable cells at 2.5 uM after 24 hrs by AnnexinV-FITC/PI staining based flow cytometry analysis (reference value: 95.1%)", "type": "functional", "conditions": "read-out: Activity"}, "MDA-MB-468 [18]": {"tested_on": "MDA-MB-468", "assay": "Induction of apoptosis in human MDA-MB-468 cells assessed as early apoptic cells at 2.5 uM after 24 hrs by AnnexinV-FITC/PI staining based flow cytometry analysis (reference value: 0.51%)", "type": "functional"}, "MDA-MB-468 [19]": {"tested_on": "MDA-MB-468", "assay": "Induction of apoptosis in human MDA-MB-468 cells assessed as late apoptic cells at 2.5 uM after 24 hrs by AnnexinV-FITC/PI staining based flow cytometry analysis (reference value: 2.84%)", "type": "functional"}, "MDA-MB-468 [20]": {"tested_on": "MDA-MB-468", "assay": "Induction of apoptosis in human MDA-MB-468 cells assessed as necrotic cells at 2.5 uM after 24 hrs by AnnexinV-FITC/PI staining based flow cytometry analysis (reference value: 1.56%)", "type": "functional"}, "MDA-MB-468 [21]": {"tested_on": "MDA-MB-468", "assay": "Induction of apoptosis in human MDA-MB-468 cells assessed as viable cells at 5 uM after 24 hrs by AnnexinV-FITC/PI staining based flow cytometry analysis (reference value: 95.1%)", "type": "functional", "conditions": "read-out: Activity"}, "MDA-MB-468 [22]": {"tested_on": "MDA-MB-468", "assay": "Induction of apoptosis in human MDA-MB-468 cells assessed as early apoptic cells at 5 uM after 24 hrs by AnnexinV-FITC/PI staining based flow cytometry analysis (reference value: 0.51%)", "type": "functional"}, "MDA-MB-468 [23]": {"tested_on": "MDA-MB-468", "assay": "Induction of apoptosis in human MDA-MB-468 cells assessed as viable cells at 10 uM after 24 hrs by AnnexinV-FITC/PI staining based flow cytometry analysis (reference value: 95.1 to 96.3%)", "type": "functional", "conditions": "read-out: Activity"}, "MDA-MB-468 [24]": {"tested_on": "MDA-MB-468", "assay": "Induction of apoptosis in human MDA-MB-468 cells assessed as early apoptic cells at 10 uM after 24 hrs by AnnexinV-FITC/PI staining based flow cytometry analysis (reference value: 0.51 to 2.55%)", "type": "functional"}, "MDA-MB-231 [25]": {"tested_on": "MDA-MB-231", "assay": "Induction of apoptosis in human MDA-MB-231 cells assessed as increase in cleaved caspase 3 level at 2.5 to 10 uM incubated for 24 hrs by western blot analysis", "type": "functional, cell-based", "conditions": "dose 2.5-10 µM"}, "MDA-MB-468 [26]": {"tested_on": "MDA-MB-468", "assay": "Induction of autophagy in human MDA-MB-468 cells expressing mRFP-EGFP-LC3B at 5 uM measured after 24 hrs by fluorescence microscopic analysis", "type": "functional, cell-based"}, "MDA-MB-231 [27]": {"tested_on": "MDA-MB-231", "assay": "Induction of autophagy in human MDA-MB-231 cells assessed as reduction in p62 protein level at 2.5 to 10 uM incubated for 24 hrs by Western blot analysis", "type": "functional, cell-based", "conditions": "dose 2.5-10 µM"}, "MDA-MB-231 [28]": {"tested_on": "MDA-MB-231", "assay": "Induction of autophagy in human MDA-MB-231 cells assessed as increase in LC3-II protein level at 2.5 to 10 uM incubated for 24 hrs by Western blot analysis", "type": "functional, cell-based", "conditions": "dose 2.5-10 µM"}, "MDA-MB-468 [29]": {"tested_on": "MDA-MB-468", "assay": "Antiproliferative activity against human MDA-MB-468 cells assessed as inhibition of cell viability at 5 uM preincubated with autophagy inhibitor, 3-methyladenine for 1 hr followed by compound addition and measured after 24 hrs by MTT assay", "type": "functional, cell-based"}, "MDA-MB-468 [30]": {"tested_on": "MDA-MB-468", "assay": "Inhibition of colony formation in human MDA-MB-468 cells at 10 uM incubated for 14 days in presence of autophagy inhibitor, 3-methyladenine by crystal violet staining based analysis", "type": "functional, cell-based", "conditions": "time 14.0 day"}, "MDA-MB-468 [31]": {"tested_on": "MDA-MB-468", "assay": "Induction of apoptosis in human MDA-MB-468 cells assessed as early apoptotic cells at 10 uM pretreated for 1 hr with autophagy inhibitor, 3-methyladenine followed by incubation with compound and measured after 24 hrs by Annexin V-FITC/propidium iodide staining based flow cytometry (reference value: 4.08%)", "type": "functional", "set-up": "scale not given: the % may be the effect or the level left"}, "MDA-MB-231 [32]": {"tested_on": "MDA-MB-231", "assay": "cells", "conditions": "Homo sapiens, MDA-MB-231, 24 h", "description": "Antiproliferative activity against human MDA-MB-231 cells assessed as reduction in cell viability incubated for 24 hrs by MTT assay"}}, "note": "Calls of active or inactive are those of the source. The rule behind the calls is not given here.", "data": [{"smiles": "C/C(=N\\NC(=O)c1cccc(Br)c1)c1ccc(C(=O)Nc2nc3ccccc3[nH]2)cc1", "values": [{"measurement": "inhibition", "setting": "[1]", "value": "Active"}, {"measurement": "inhibition", "setting": "[2]", "value": "Active"}, {"measurement": "inhibition", "setting": "[3]", "value": "Active"}, {"measurement": "inhibition", "setting": "[4]", "value": "Active"}, {"measurement": "inhibition", "setting": "[5]", "value": "Active"}, {"measurement": "inhibition", "setting": "[6]", "value": "Active"}, {"measurement": "inhibition", "setting": "[7]", "value": "Active"}, {"measurement": "inhibition", "setting": "[8]", "value": "Active"}, {"measurement": "Activity", "setting": "MDA-MB-231 [9]", "value": "Dose-Dependent Effect"}, {"measurement": "viability at 2.5 µM", "setting": "MDA-MB-231 [10]", "value": 90.1, "unit": "%"}, {"measurement": "Activity", "setting": "MDA-MB-231 [11]", "value": 0.076, "unit": "%"}, {"measurement": "viability at 5 µM", "setting": "MDA-MB-231 [12]", "value": 87.1, "unit": "%"}, {"measurement": "Activity", "setting": "MDA-MB-231 [13]", "value": 10.5, "unit": "%"}, {"measurement": "Activity", "setting": "MDA-MB-231 [14]", "value": 2.3, "unit": "%"}, {"measurement": "Activity", "setting": "MDA-MB-231 [15]", "value": 0.099, "unit": "%"}, {"measurement": "Activity", "setting": "MDA-MB-231 [16]", "value": 5.71, "unit": "%"}, {"measurement": "viability at 2.5 µM", "setting": "MDA-MB-468 [17]", "value": 89.8, "unit": "%"}, {"measurement": "Activity", "setting": "MDA-MB-468 [18]", "value": 3.35, "unit": "%"}, {"measurement": "Activity", "setting": "MDA-MB-468 [19]", "value": 4.96, "unit": "%"}, {"measurement": "Activity", "setting": "MDA-MB-468 [20]", "value": 1.89, "unit": "%"}, {"measurement": "viability at 5 µM", "setting": "MDA-MB-468 [21]", "value": 86.2, "unit": "%"}, {"measurement": "Activity", "setting": "MDA-MB-468 [22]", "value": 5.57, "unit": "%"}, {"measurement": "viability at 10 µM", "setting": "MDA-MB-468 [23]", "value": 60.5, "unit": "%"}, {"measurement": "Activity", "setting": "MDA-MB-468 [24]", "value": 12, "unit": "%"}, {"measurement": "Activity", "setting": "MDA-MB-231 [25]", "value": "Active"}, {"measurement": "Activity", "setting": "MDA-MB-468 [26]", "value": "Active"}, {"measurement": "Activity", "setting": "MDA-MB-231 [27]", "value": "Active"}, {"measurement": "Activity", "setting": "MDA-MB-231 [28]", "value": "Active"}, {"measurement": "Activity", "setting": "MDA-MB-468 [29]", "value": "Active"}, {"measurement": "inhibition", "setting": "MDA-MB-468 [30]", "value": "Active"}, {"measurement": "Activity", "setting": "MDA-MB-468 [31]", "value": 7.07, "unit": "%"}, {"measurement": "IC50", "setting": "MDA-MB-231 [32]", "value": 3.38, "unit": "µM"}]}]}
